The text below walks through data of patent publication US9617225B2 (VIROSTATICS SRL, priority 2012, dated 2017).

In data set [1] the target is human CDK9/CyclinT kinase complex (Homo sapiens (Human), UniProt P50750). Nature of the data set: In Vitro CDK9/CyclinT Assay (IMAP fluorescent polarization). It counts as biochemical. An outline of the steps:
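Phosphorylation of 400 nM TAMRA-Rbtide (15-mer retinoblastoma-derived peptide) by 5 nM CDK9/CyclinT with 12 μM ATP (=Kmapp) in 20 mM MOPS pH 7, 1 mM DTT, 10 mM MgCl2, 0.01% Tween 20. Reaction run 1 hour at room temperature, stopped with IMAP beads; read by fluorescence polarization.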

For data set [2], the system named is laboratory strain of HIV-1. Nature of the data set: Antiviral Activity Against HIV (AV), p24 in infected activated primary T cells. The settings on record: for antiviral and antiproliferative activity and cytotoxicity profile: summary in words; for pIC50: read-out: AV50, Table 5. It counts as cell-based. Here is the method:
Antiviral Activity Against HIV (AV)
Activated primary T cells are infected with a laboratory strain of HIV-1, then cultured and exposed to different concentrations of the test compounds. HIV replication is analysed by measuring the viral protein p24 and expressed as percentage of untreated control. Inhibition of viral replication (AV) is then calculated (AV=100 minus the % p24 compared to control, AV of control=0%). Inhibitory concentration 50% for antiviral activity (AV50) is calculated.

The subject of data set [3] is Primary T cells. As to the kind of experiment: Cytotoxicity, viability by flow cytometry. It counts as cell-based. Here is the method:
Primary T cells are cultured and treated with different concentrations of the test compound. Viability is analysed by measuring through flow cytometry based techniques the percentage of viable cells, compared to untreated control=100%).

pIC50: −log10 of the molar value. Read-outs that look alike come from different tables or passages of the source.

human CDK9/CyclinT kinase complex, sequence (P50750 whole entry): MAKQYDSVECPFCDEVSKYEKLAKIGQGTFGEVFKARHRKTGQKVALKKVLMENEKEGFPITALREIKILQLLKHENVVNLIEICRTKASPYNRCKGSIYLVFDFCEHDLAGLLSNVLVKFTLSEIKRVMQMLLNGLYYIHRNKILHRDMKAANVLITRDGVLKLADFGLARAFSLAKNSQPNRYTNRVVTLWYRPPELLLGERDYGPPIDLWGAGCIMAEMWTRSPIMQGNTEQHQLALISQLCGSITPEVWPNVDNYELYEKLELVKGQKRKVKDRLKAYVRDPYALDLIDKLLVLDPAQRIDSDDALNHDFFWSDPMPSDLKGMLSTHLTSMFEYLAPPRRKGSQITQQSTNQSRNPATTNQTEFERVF
human CDK9/CyclinT kinase complex, sequence (O60563 whole entry partner): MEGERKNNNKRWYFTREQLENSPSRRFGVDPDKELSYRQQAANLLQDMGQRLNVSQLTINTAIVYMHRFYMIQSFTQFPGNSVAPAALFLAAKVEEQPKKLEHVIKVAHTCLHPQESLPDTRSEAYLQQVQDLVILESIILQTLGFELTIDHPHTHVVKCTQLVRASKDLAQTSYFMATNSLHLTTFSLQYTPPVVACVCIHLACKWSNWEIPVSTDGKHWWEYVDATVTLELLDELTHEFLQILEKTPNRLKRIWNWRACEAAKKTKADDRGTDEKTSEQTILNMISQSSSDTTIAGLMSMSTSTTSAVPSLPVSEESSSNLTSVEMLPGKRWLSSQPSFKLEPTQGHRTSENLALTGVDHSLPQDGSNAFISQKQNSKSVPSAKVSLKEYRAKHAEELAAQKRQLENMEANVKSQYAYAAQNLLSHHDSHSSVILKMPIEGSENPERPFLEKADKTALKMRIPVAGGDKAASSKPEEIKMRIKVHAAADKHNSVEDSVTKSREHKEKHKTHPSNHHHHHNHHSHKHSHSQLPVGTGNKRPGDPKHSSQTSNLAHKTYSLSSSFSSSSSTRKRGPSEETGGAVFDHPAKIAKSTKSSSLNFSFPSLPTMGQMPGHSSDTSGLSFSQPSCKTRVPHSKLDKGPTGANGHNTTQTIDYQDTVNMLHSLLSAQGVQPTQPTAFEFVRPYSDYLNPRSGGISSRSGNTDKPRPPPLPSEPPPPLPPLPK

Turning to `COc1ccc(Nc2cc(-c3ccc(F)cc3OC)ncn2)cc1N` [Example 64], the pIC50 in data set [1] (Table 1) and in data set [1] (Table 5) was over 6.00 throughout. In addition, the “antiviral and antiproliferative activity and cytotoxicity profile” value in data set [2] is “good antiviral and antiproliferative activity and a good cytotoxicity profile”. The “TD50” value in data set [3] is 5 µM.

Regarding `CCOc1cc(F)ccc1-c1cc(Nc2ccc(OC)c(N)c2)ncn1` [Example 73, N^1-[6-(2-Ethoxy-4-fluoro-phenyl)-pyrimidin-4-yl]-4-methoxy-benzene-1,3-diamine], the pIC50 in data set [1] (Table 1) is over 6.00. Also, in data set [2], the “antiviral and antiproliferative activity and cytotoxicity profile” value is “good antiviral and antiproliferative activity and a good cytotoxicity profile”. For the same molecule, the “TD50” value in data set [3] came out at 6 µM.

In turn, `COc1ccc(Nc2cc(-c3cc(F)ccc3OC)ncn2)cc1N` [Example 75, N^1-[6-(5-Fluoro-2-methoxy-phenyl)-pyrimidin-4-yl]-4-methoxy-benzene-1,3-diamine] gave a pIC50 in data set [1] (Table 1) of over 6.00. For the same molecule, the “antiviral and antiproliferative activity and cytotoxicity profile” value in data set [2] was “good antiviral and antiproliferative activity and a good cytotoxicity profile”. Besides, in data set [3], the “TD50” value amounted to 10 µM.

Regarding `COc1ccc(Nc2cc(-c3ccccc3OC(C)C)ncn2)cc1N` [Example 79, N^1-[6-(2-Isopropoxy-phenyl)-pyrimidin-4-yl]-4-methoxy-benzene-1,3-diamine], in data set [1] (Table 1), the pIC50 was over 6.00. Moreover, the “antiviral and antiproliferative activity and cytotoxicity profile” value in data set [2] was “good antiviral and antiproliferative activity and a good cytotoxicity profile”. Besides, the “TD50” value in data set [3] amounted to 15 µM.

`COc1ccc(Nc2cc(-c3cc(F)c(F)cc3OC)ncn2)cc1N` [Example 83, N^1-[6-(4,5-Difluoro-2-methoxy-phenyl)-pyrimidin-4-yl]-4-methoxy-benzene-1,3-diamine]: the pIC50 in data set [1] (Table 1) was over 6.00. For the same molecule, the “antiviral and antiproliferative activity and cytotoxicity profile” value in data set [2] was “good antiviral and antiproliferative activity and a good cytotoxicity profile”. In addition, the “TD50” value in data set [3] stood at 12 µM.

Consider `CCOc1ccc(Nc2cc(-c3ccccc3OC)ncn2)cc1C(N)=O` [Example 111, 2-Ethoxy-5-[6-(2-methoxy-phenyl)-pyrimidin-4-ylamino]-benzamide], for which the pIC50 in data set [1] (Table 1) is over 6.00. For the same molecule, in data set [2], the “antiviral and antiproliferative activity and cytotoxicity profile” value was “good antiviral and antiproliferative activity and a good cytotoxicity profile”. Moreover, the “TD50” value in data set [3] is 12 µM.

`CCOc1ccc(Nc2cc(-c3ccc(F)cc3OC)ncn2)cc1C(N)=O` [Example 112, 2-Ethoxy-5-[6-(4-fluoro-2-methoxy-phenyl)-pyrimidin-4-ylamino]-benzamide] showed a pIC50 in data set [1] of over 6.00. Besides, the “antiviral and antiproliferative activity and cytotoxicity profile” value in data set [2] was “good antiviral and antiproliferative activity and a good cytotoxicity profile”. Besides, the “TD50” value in data set [3] is 10 µM.

On to `COc1ccc(Nc2cc(-c3ccc(F)cc3OC)ncn2)cc1O` [Example 123, 5-[6-(4-Fluoro-2-methoxy-phenyl)-pyrimidin-4-ylamino]-2-methoxy-phenol], for which the pIC50 in data set [1] (Table 1) was over 6.00. Further, the “antiviral and antiproliferative activity and cytotoxicity profile” value in data set [2] is “good antiviral and antiproliferative activity and a good cytotoxicity profile”. Moreover, the “TD50” value in data set [3] was found to be 7 µM.

As to `COc1ccc(Nc2cc(-c3cc(F)ccc3OC)ncn2)cc1C(N)=O` [Example 127, 5-[6-(5-Fluoro-2-methoxy-phenyl)-pyrimidin-4-ylamino]-2-methoxy-benzamide], the pIC50 in data set [1] was over 6.00. Moreover, the “antiviral and antiproliferative activity and cytotoxicity profile” value in data set [2] is “good antiviral and antiproliferative activity and a good cytotoxicity profile”. Also, the “TD50” value in data set [3] worked out at 7 µM.

In data set [1] (Table 1), `COc1ccc(Nc2cc(-c3ccc(F)cc3OC)ncn2)cc1C(N)=O` [Example 128, 5-[6-(4-Fluoro-2-methoxy-phenyl)-pyrimidin-4-ylamino]-2-methoxy-benzamide] gave a pIC50 of over 6.00. In data set [2], the “antiviral and antiproliferative activity and cytotoxicity profile” value was “good antiviral and antiproliferative activity and a good cytotoxicity profile”. Besides, the “TD50” value in data set [3] worked out at 5 µM.

Take `CCOc1ccccc1-c1cc(Nc2ccc(OC)c(C(N)=O)c2)ncn1` [Example 129, 5-[6-(2-Ethoxy-phenyl)-pyrimidin-4-ylamino]-2-methoxy-benzamide]: in data set [1], the pIC50 was over 7.00. The “antiviral and antiproliferative activity and cytotoxicity profile” value in data set [2] was “good antiviral and antiproliferative activity and a good cytotoxicity profile”. Moreover, the “TD50” value in data set [3] was 5 µM.

As for `CCOc1cc(F)ccc1-c1cc(Nc2ccc(OC)c(C(N)=O)c2)ncn1` [Example 130, 5-[6-(2-Ethoxy-4-fluoro-phenyl)-pyrimidin-4-ylamino]-2-methoxy-benzamide], the pIC50 in data set [1] is over 7.00. The “antiviral and antiproliferative activity and cytotoxicity profile” value in data set [2] was “good antiviral and antiproliferative activity and a good cytotoxicity profile”. In data set [3], the “TD50” value stood at 15 µM.

In data set [1] (Table 1), `CCOc1ccc(F)cc1-c1cc(Nc2ccc(OC)c(C(N)=O)c2)ncn1` [Example 131, 5-[6-(2-Ethoxy-5-fluoro-phenyl)-pyrimidin-4-ylamino]-2-methoxy-benzamide] showed a pIC50 of over 6.00. In addition, the “antiviral and antiproliferative activity and cytotoxicity profile” value in data set [2] was “good antiviral and antiproliferative activity and a good cytotoxicity profile”. For the same molecule, the “TD50” value in data set [3] was 2 µM.

On to `CNC(=O)c1ccc(Nc2cc(-c3ccccc3OC)ncn2)cc1OC` [Example 134, 2-Methoxy-4-[6-(2-methoxy-phenyl)-pyrimidin-4-ylamino]-N-methyl-benzamide], for which the pIC50 in data set [1] (Table 1) is over 6.00; in data set [1] (Table 5), over 6.00; in data set [2], under 5.00. Besides, in data set [3], the “TD50” value was over 10 µM.

As for `COc1cc(Nc2cc(-c3ccccc3OC)ncn2)ccc1C(N)=O` [Example 136, 2-Methoxy-4-[6-(2-methoxy-phenyl)-pyrimidin-4-ylamino]-benzamide], the pIC50 is over 6.00 in data set [1] (Table 1), over 6.00 in data set [1] (Table 5) and under 5.70 in data set [2]. The “TD50” value in data set [3] was over 2 µM.

In turn, `CCOc1ccccc1-c1cc(Nc2cc(F)c(OC)c(C(N)=O)c2)ncn1` [Example 141, 5-[6-(2-Ethoxy-phenyl)-pyrimidin-4-ylamino]-3-fluoro-2-methoxy-benzamide] gave a pIC50 in data set [1] (Table 1) of over 6.00. Moreover, the “antiviral and antiproliferative activity and cytotoxicity profile” value in data set [2] was “good antiviral and antiproliferative activity and a good cytotoxicity profile”. In data set [3], the “TD50” value is over 20 µM.

As for `CCOc1ccc(F)cc1-c1cc(Nc2cc(F)c(OC)c(C(N)=O)c2)ncn1` [Example 142, 5-[6-(2-Ethoxy-5-fluoro-phenyl)-pyrimidin-4-ylamino]-3-fluoro-2-methoxy-benzamide], the pIC50 in data set [1] was over 6.00. Besides, the “antiviral and antiproliferative activity and cytotoxicity profile” value in data set [2] was “good antiviral and antiproliferative activity and a good cytotoxicity profile”. In addition, the “TD50” value in data set [3] was over 20 µM.

Regarding `COc1cc(F)c(Nc2cc(-c3ccccc3OC)ncn2)cc1C(N)=O` [Example 143, 4-Fluoro-2-methoxy-5-[6-(2-methoxy-phenyl)-pyrimidin-4-ylamino]-benzamide], the pIC50 in data set [1] is over 6.00. Moreover, the “antiviral and antiproliferative activity and cytotoxicity profile” value in data set [2] is “good antiviral and antiproliferative activity and a good cytotoxicity profile”. For the same molecule, the “TD50” value in data set [3] worked out at 15 µM.

Molecule `COc1cc(F)c(Nc2cc(-c3cc(F)ccc3OC)ncn2)cc1C(N)=O` [Example 144, 4-Fluoro-5-[6-(5-fluoro-2-methoxy-phenyl)-pyrimidin-4-ylamino]-2-methoxy-benzamide] showed a pIC50 in data set [1] of over 6.00. Further, the “antiviral and antiproliferative activity and cytotoxicity profile” value in data set [2] was “good antiviral and antiproliferative activity and a good cytotoxicity profile”. In data set [3], the “TD50” value came out at 12 µM.

Molecule `CCOc1ccccc1-c1cc(Nc2cc(C(N)=O)c(OC)cc2F)ncn1` [Example 145, 5-[6-(2-Ethoxy-phenyl)-pyrimidin-4-ylamino]-4-fluoro-2-methoxy-benzamide] had a pIC50 in data set [1] of over 6.00. Moreover, the “antiviral and antiproliferative activity and cytotoxicity profile” value in data set [2] is “good antiviral and antiproliferative activity and a good cytotoxicity profile”. The “TD50” value in data set [3] came to 15 µM.

On to `COc1cc(F)c(Nc2cc(-c3ccc(F)cc3OC)ncn2)cc1C(N)=O` [Example 146, 4-Fluoro-5-[6-(4-fluoro-2-methoxy-phenyl)-pyrimidin-4-ylamino]-2-methoxy-benzamide], for which, in data set [1] (Table 1), the pIC50 is over 6.00. In data set [2], the “antiviral and antiproliferative activity and cytotoxicity profile” value was “good antiviral and antiproliferative activity and a good cytotoxicity profile”. Moreover, the “TD50” value in data set [3] turned out to be 10 µM.

In data set [1], `CCOc1cc(F)ccc1-c1cc(Nc2cc(C(N)=O)c(OC)cc2F)ncn1` [Example 147, 5-[6-(2-Ethoxy-4-fluoro-phenyl)-pyrimidin-4-ylamino]-4-fluoro-2-methoxy-benzamide] showed a pIC50 of over 6.00. In addition, in data set [2], the “antiviral and antiproliferative activity and cytotoxicity profile” value was “good antiviral and antiproliferative activity and a good cytotoxicity profile”. Besides, the “TD50” value in data set [3] was found to be 15 µM.
